Like-named read-outs stand apart in the source and are kept apart here. Non-standard residues stand in square brackets, D forms with d. Residues, ends and D or L forms follow the SMILES beside them. Nle = CCCC[C@H](N)C(=O)O
Tests used:
[1] = system: S. aureus (MRSA) ATCC 33591; assay type: cell-based, Staphylococcus aureus; conditions: Table 9, media b: cation adjusted Meuller Hinton broth (MHBII)
Protocol: (§1) The antimicrobial activity of the peptides was determined using a broth dilution assay essentially as descried in the guidelines of the National Committee for […] (NCCLS) [National Committee for Clinical Laboratory Standards. Methods for dilution antimicrobial susceptibility tests for bacteria that grow aerobically. Fourth edition. Approved Standard (1997). Document M7-A4. […] The microdilution method has the advantages of requiring less amount of peptide for each assay and the possibility of multiple simultaneous inoculations and was used in most studies. Several of the strains of bacteria tested are further described in Table 3.
(§2) Preparation of peptide solutions. Stock peptide solutions were prepared in 5% DMSO in aq. sucrose (9%). Determination of peptide concentrations was done by quantitative HPLC analysis using known concentrations of internal standards and/or by measuring UV absorption of tryptophane-containing peptide solutions in H2O (λ=280 εTrp: 5690). Serial 2-fold dilutions were made in the above DMSO/aq. sucrose (9%) mixture with concentrations ranging approximately 400-2 μg/ml and aliquots were dispensed in test tubes (100 μl) for the macrodilution test or in microtiter plates (20 μl) for the microdilution assays.
(§3) Inoculum preparation. Overnight cultures of different microorganisms grown in suitable media were diluted 4000 times to an approximate inoculum size of 2.5×10^5 cfu/ml.
(§4) Macrodilution method. Macrodilution methods were performed using procedures similar to those described in the National Committee for Clinical Laboratory Standards. Methods for dilution antimicrobial susceptibility tests for bacteria that grow aerobically. Fourth edition. Approved Standard (1997). Document M7-A4. (NCCLS,Villanova, Pa., 1997). Two ml aliquots of the above inoculum were dispensed to test tubes containing different peptide solutions.
(§5) Microdilution method. Microdilution methods were performed using procedures similar to those described in the National Committee for Clinical Laboratory Standards. Methods for dilution antimicrobial susceptibility tests for bacteria that grow aerobically. Fourth edition. Approved Standard (1997). Document M7-A4.

murine red blood cells = test: Red blood cell hemolysis; assay type: cell-based, mouse
Protocol: Selectivity of cyclic peptides for bacterial over mammalian cells was evaluated by measuring red blood cell hemolytic activities as described in Tosteson, M. T. Holmes, S. J., Razin, M. and Tosteson, D. C. Melittin Lysis of Red Cells, J. Membrane Biol. 87, 35-44(1985). Heparinized murine blood was centrifuged at 1000×g for 10 minutes. The supernatant and the buffy coat were removed. Erythrocytes were washed three times with 0.9% saline solution and then resuspended to a concentration of 5% in saline containing 10% FBS (v/v). Red blood cells were then treated with serial dilutions of test peptides in a 96 well plate at 37° C. for 30 minutes. Control samples included a saline solution arid 1% Triton X-100 as 0 and 100% hemolysis, respectively. In some cases, mellitin was used as a further control. Mellitin is a linear peptide that is hemolytic against mammalian red blood cells in vitro at a concentration of about 10 μg/ml. Plates were centrifuged at 1000 g for 10 minutes. Aliquots of the supernatant were diluted 2 times with saline solution and the absorbance was measured at 560 nm.

[2] = system: vancomycin-resistant Enterococus faecalis (VRE)(ATCC 51575); assay type: cell-based, Enterococcus faecalis; set-up: key to VRE (in vitro activity): peptide concentration in μg/ml (broth dilution assay); conditions: Table 9
Protocol: as §1, §2, §3, §4, §5

[3] = media c: Brain Heart Infusion (BHI)

Row | Compound | MRSA (in vitro activity) [1] | RBC Hemolysis (HD50) (murine red blood cells) | VRE (in vitro activity) [2, 3] | MRSA (in vitro activity) ([1]; listed as [KSKLFLFL] (54)) | MRSA (in vitro activity) ([1]; listed as [KSKLILIL] (57)) | VRE (in vitro activity) ([2]; media b: MHBII)
1 | CC(C)C[C@H]1NC(=O)[C@H](CCCCN)NC(=O)[C@@H](Cc2c[nH]cn2)NC(=O)[C@H](CCCCN)NC(=O)[C@@H](CC(C)C)NC(=O)[C@H](Cc2ccccc2)NC(=O)[C@@H](CC(C)C)NC(=O)[C@H](Cc2ccccc2)NC1=O [SEQ ID NO:48, [KHKLFLFL]] (cyclo(K[dH]K[dL]F[dL]F[dL])) | 7 | >220 | 13 | – | – | –
2 | CC(C)C[C@H]1NC(=O)[C@H](CCCCN)NC(=O)[C@@H](Cc2c[nH]cn2)NC(=O)[C@H](CCCCN)NC(=O)[C@@H](CC(C)C)NC(=O)[C@H](Cc2c[nH]c3ccccc23)NC(=O)[C@@H](CC(C)C)NC(=O)[C@H](Cc2ccccc2)NC1=O [SEQ ID NO:49, [KHKLFLWL]] (cyclo(K[dH]K[dL]F[dL]W[dL])) | 12 | 200 | 25 | – | – | –
3 | CC(C)C[C@H]1NC(=O)[C@H](CCCCN)NC(=O)[C@@H](Cc2c[nH]cn2)NC(=O)[C@H](CCCCN)NC(=O)[C@@H](CC(C)C)NC(=O)[C@H](Cc2c[nH]c3ccccc23)NC(=O)[C@@H](CC(C)C)NC(=O)[C@H](Cc2c[nH]c3ccccc23)NC1=O [SEQ ID NO:50, [KHKLWLWL]] (cyclo(K[dH]K[dL]W[dL]W[dL])) | 9 | 150 | 18 | – | – | –
4 | CC(C)C[C@@H]1NC(=O)[C@@H](Cc2ccccc2)NC(=O)[C@H](CCCCN)NC(=O)[C@@H](CCCCN)NC(=O)[C@H](CCCCN)NC(=O)[C@@H](Cc2ccccc2)NC(=O)[C@H](CC(C)C)NC(=O)[C@@H](Cc2ccccc2)NC1=O [SEQ ID NO:51, [KKKFLFLF]] (cyclo(K[dK]K[dF]L[dF]L[dF])) | 18 | >300 | 75 | – | – | –
5 | CC(C)C[C@H]1NC(=O)[C@H](CCCCN)NC(=O)[C@@H](CCCNC(=N)N)NC(=O)[C@H](CCCCN)NC(=O)[C@@H](CC(C)C)NC(=O)[C@H](Cc2ccccc2)NC(=O)[C@@H](CC(C)C)NC(=O)[C@H](Cc2ccccc2)NC1=O [SEQ ID NO:52, [KRKLFLFL]] (cyclo(K[dR]K[dL]F[dL]F[dL])) | 11 | >180 | 22 | – | – | –
6 | CC(C)C[C@H]1NC(=O)[C@H](C)NC(=O)[C@@H](CC(C)C)NC(=O)[C@H](CCCCN)NC(=O)[C@@H](CO)NC(=O)[C@H](CCCCN)NC(=O)[C@@H](CC(C)C)NC(=O)[C@H](C)NC1=O [SEQ ID NO:53, [KSKLALAL]] (cyclo(K[dS]K[dL]A[dL]A[dL])) | 35 | >280 | >280 | – | – | –
7 | CC(C)C[C@H]1NC(=O)[C@H](CCCCN)NC(=O)[C@@H](CO)NC(=O)[C@H](CCCCN)NC(=O)[C@@H](CC(C)C)NC(=O)[C@H](Cc2ccccc2)NC(=O)[C@@H](CC(C)C)NC(=O)[C@H](Cc2ccccc2)NC1=O [SEQ ID NO:54, [KSKLFLFL]] (cyclo(F[dL]F[dL]K[dS]K[dL])) | – | >200 | 200 | 50 | – | –
8 | CC(C)C[C@H]1NC(=O)CNC(=O)[C@@H](CC(C)C)NC(=O)[C@H](CCCCN)NC(=O)[C@@H](CO)NC(=O)[C@H](CCCCN)NC(=O)[C@@H](CC(C)C)NC(=O)CNC1=O [SEQ ID NO:56, [KSKLGLGL]] (cyclo(K[dS]K[dL]G[dL]G[dL])) | >240 | >240 | >240 | – | – | –
9 | CC[C@H](C)[C@@H]1NC(=O)[C@@H](CC(C)C)NC(=O)[C@H](CCCCN)NC(=O)[C@@H](CO)NC(=O)[C@H](CCCCN)NC(=O)[C@@H](CC(C)C)NC(=O)[C@H]([C@@H](C)CC)NC(=O)[C@@H](CC(C)C)NC1=O [SEQ ID NO:57, [KSKLILIL]] (cyclo(I[dL]I[dL]K[dS]K[dL])) | – | >200 | >200 | – | 200 | –
10 | CCCC[C@@H]1NC(=O)[C@@H](CC(C)C)NC(=O)[C@H](CCCCN)NC(=O)[C@@H](CO)NC(=O)[C@H](CCCCN)NC(=O)[C@@H](CC(C)C)NC(=O)[C@H](CCCC)NC(=O)[C@@H](CC(C)C)NC1=O [SEQ ID NO:59, [KSKLNleLNleL]] (cyclo(K[dS]K[dL][Nle][dL][Nle][dL])) | 220 | >220 | >200 | – | – | –
11 | CC(C)C[C@H]1NC(=O)[C@H](CCCCN)NC(=O)[C@@H](CO)NC(=O)[C@H](CCCCN)NC(=O)[C@@H](CC(C)C)NC(=O)[C@H](C(C)C)NC(=O)[C@@H](CC(C)C)NC(=O)[C@H](C(C)C)NC1=O [SEQ ID NO:60, [KSKLVLVL]] (cyclo(K[dS]K[dL]V[dL]V[dL])) | >220 | >220 | >220 | – | – | –
12 | CC(C)C[C@H]1NC(=O)[C@H](CCCCN)NC(=O)[C@@H](CO)NC(=O)[C@H](CCCCN)NC(=O)[C@@H](CC(C)C)NC(=O)[C@H](Cc2c[nH]c3ccccc23)NC(=O)[C@@H](CC(C)C)NC(=O)[C@H](Cc2c[nH]c3ccccc23)NC1=O [SEQ ID NO:61, [KSKLWLWL]] (cyclo(K[dS]K[dL]W[dL]W[dL])) | 15 | 125 | 15 | – | – | –
13 | CC(C)C[C@H]1NC(=O)[C@H](CCCCN)NC(=O)[C@@H](CO)NC(=O)[C@H](CCCCN)NC(=O)[C@@H](CC(C)C)NC(=O)[C@H](Cc2ccc(O)cc2)NC(=O)[C@@H](CC(C)C)NC(=O)[C@H](Cc2ccc(O)cc2)NC1=O [SEQ ID NO:62, [KSKLYLYL]] (cyclo(K[dS]K[dL]Y[dL]Y[dL])) | 100 | >200 | 200 | – | – | –
14 | CC(C)C[C@H]1NC(=O)[C@H](C)NC(=O)[C@@H](CC(C)C)NC(=O)[C@H](CCCCN)NC(=O)[C@@H]([C@H](C)O)NC(=O)[C@H](CCCCN)NC(=O)[C@@H](CC(C)C)NC(=O)[C@H](C)NC1=O [SEQ ID NO:64, [KTKLALAL]] (cyclo(K[dT]K[dL]A[dL]A[dL])) | 80 | >160 | >160 | – | – | –
15 | CC(C)C[C@H]1NC(=O)[C@H](Cc2ccccc2)NC(=O)[C@@H](CC(C)C)NC(=O)[C@H](CCCCN)NC(=O)[C@@H]([C@H](C)O)NC(=O)[C@H](CCCCN)NC(=O)[C@@H](CC(C)C)NC(=O)[C@H](Cc2ccccc2)NC1=O [SEQ ID NO:65, [KTKLFLFL]] (cyclo(K[dT]K[dL]F[dL]F[dL])) | 60 | >240 | >240 | – | – | –
16 | CC(C)C[C@H]1NC(=O)[C@H](Cc2c[nH]c3ccccc23)NC(=O)[C@@H](CC(C)C)NC(=O)[C@H](CCCCN)NC(=O)[C@@H]([C@H](C)O)NC(=O)[C@H](CCCCN)NC(=O)[C@@H](CC(C)C)NC(=O)[C@H](Cc2c[nH]c3ccccc23)NC1=O [SEQ ID NO:66, [KTKLWLWL]] (cyclo(K[dT]K[dL]W[dL]W[dL])) | 18 | 150 | 18 | – | – | –
17 | CC(C)C[C@H]1NC(=O)[C@H](Cc2c[nH]c3ccccc23)NC(=O)[C@@H](Cc2c[nH]c3ccccc23)NC(=O)[C@H](CCCCN)NC(=O)[C@@H](CO)NC(=O)[C@H](CCCCN)NC(=O)[C@@H](CC(C)C)NC(=O)[C@H](Cc2c[nH]c3ccccc23)NC1=O [SEQ ID NO:67, [KWWLWLKS]] (cyclo(K[dW]W[dL]W[dL]K[dS])) | 7 | >153 | – | – | – | 10
18 | CC(C)C[C@@H]1NC(=O)[C@@H](Cc2c[nH]c3ccccc23)NC(=O)[C@H](Cc2ccccc2)NC(=O)[C@@H](CCCNC(=N)N)NC(=O)[C@H](CCC(N)=O)NC(=O)[C@@H](CCCNC(=N)N)NC(=O)[C@H](Cc2c[nH]c3ccccc23)NC(=O)[C@@H](Cc2c[nH]c3ccccc23)NC1=O [SEQ ID NO:68, [QRFWLWWR]] (cyclo(Q[dR]F[dW]L[dW]W[dR])) | 7.5 | 60 | – | – | – | 3.8

Reference: US20050107289A1, “Anti-microbial peptides and compositions” (priority 2001, published 2005)
